Measurements from patent publication US12384777B2 (Tay Therapeutics Limited, priority 2019, dated 2025).
Where two headings read alike, the source gives them in different places.

Experiments:
human liver hepatocytes = test: Intrinsic clearance in human liver hepatocytes; type: in vitro ADME; settings: human cryopreserved hepatocytes, 0.5 μM test compound
Procedure: Vials of human cryopreserved hepatocytes, supplied by Life Technologies, were thawed according to manufacturer's instructions and cells re-suspended in Williams Medium E (WME) containing cell maintenance supplement pack (CM4000, Life Technologies). Hepatocytes were incubated in suspension (0.5 million cells/mL) in 48 well non-collagen coated cell culture plates for 10 min at 37° C., 5% CO2. Upon addition of an equal volume of supplemented WME containing 1 μM test compound, an aliquot of incubation solution was removed to acetonitrile containing internal standard (final concentration 0.5 μM test compound and a cell density of 0.25 million cells/mL). Similarly, aliquots were removed at 3, 6, 9, 15, 30, 45, 60, 90 and 120 min. 100 μL of 80:20 water:acetonitrile was added to all samples and the analysis plate was centrifuged for 10 min at RT prior to injection and analysis of samples by UPLC-MS/MS. The response (area ratio of test compound to internal standard) was plotted against time using an exponential decay model from which rate of disappearance was calculated.

BRD4 BD1 = BRD4 BD1 (Homo sapiens (Human), UniProt O60885); test: Bromodomain binding assay (T7 phage display, qPCR), BRD4 BD1; settings: read-out: BRD4 BD1 Kd
Procedure: (§1) T7 phage strains displaying bromodomains were grown in parallel in 24-well blocks in an E. coli host derived from the BL21 strain. E. coli were grown to log-phase and infected with T7 phage from a frozen stock (multiplicity of infection=0.4) and incubated with shaking at 32° C. until lysis (90-150 min). The lysates were centrifuged (5,000×g) and filtered (0.2 μm) to remove cell debris. Streptavidin-coated magnetic beads were treated with biotinylated small molecule or acetylated peptide ligands for 30 min at RT to generate affinity resins for bromodomain assays. The ligated beads were blocked with excess biotin and washed with blocking buffer (SeaBlock (Pierce), 1% BSA, 0.05% Tween 20, 1 mM DTT) to remove unbound ligand and to reduce non-specific phage binding. Binding reactions were assembled by combining bromodomains, ligated affinity beads, and test compounds in 1× binding buffer (16% SeaBlock, 0.32×PBS, 0.02% BSA, 0.04% Tween 20, 0.004% Sodium azide, 7.9 mM DTT). Test compounds were prepared as 1000× stocks in 100% DMSO and subsequently diluted 1:25 in MEG. The compounds were then diluted directly into the assays such that the final concentrations of DMSO and MEG were 0.1% and 2.4%, respectively. All reactions were performed in polypropylene 384-well plates in a final volume of 0.02 ml. The assay plates were incubated at RT with shaking for 1 hr and the affinity beads were washed with wash buffer (1×PBS, 0.05% Tween 20). The beads were then re-suspended in elution buffer (1×PBS, 0.05% Tween 20, 2 μM non-biotinylated affinity ligand) and incubated at RT with shaking for 30 min. The bromodomain concentration in the eluates was measured by quantitative polymerase chain reaction (qPCR).
(§2) An 11-point 3-fold serial dilution of each test compound was prepared in 100% DMSO at 1000× final test concentration. All compounds were distributed by acoustic transfer (non-contact dispensing) in 100% DMSO. The compounds were then diluted directly into the assays such that the final concentration of DMSO was 0.09%. Most dissociation constants were determined using a compound top concentration=10,000 nM. If the initial dissociation constant determined was <0.169 nM (the lowest concentration tested), the measurement was repeated with a serial dilution starting at a lower top concentration.
(§3) The same bromodomain assay procedure as that outlined above was used. Example compounds were screened at 30 times their Kd, and results for primary screen binding interactions are reported as ‘% Ctrl’, where lower numbers indicate stronger hits in the matrix.

BRD4 BD2 = BRD4 BD2 (Homo sapiens (Human), UniProt O60885); test: Bromodomain binding assay (T7 phage display, qPCR), BRD4 BD2; settings: read-out: BRD4 BD2 Kd
Procedure: as §1, §2, §3

[1] = system: CD4+ T-cells stimulated by CD2, CD3 and CD28 antibodies; test: Cellular activity IL-4: reduction of IL-4 levels in activated CD4+ T-cells; type: cell-based, human
Procedure: • 1. CD4^+ T-cells are isolated from cryopreserved human peripheral blood mononuclear cells (PBMCs) using EasySep™ Kit (Cat. No. 17952, Stemcell Technologies). • 2. CD2, CD3 and CD28 antibodies coated beads from T cell Activation/Expansion Kit (Cat. No. 130-091-441, Miltenyi Biotec) are added to the CD4^+ T-cells at a bead-to-cell ratio of 1:2. • 3. CD4^+ T-cells along with the beads are seeded at 2×10^5 cells/well in a round bottom 96-well plate and treated with different compounds and controls in a total volume of 200 μl. • 4. The cells are cultured for 48 hrs at 37° C., 5% CO2. • 5. Supernatant is collected and IL-4 is analysed by ELISA.

[2] = Homo sapiens, T-cell, 48 hrs, ELISA, read-out: EC50 reduction of IL-4 levels
[3] = Homo sapiens, T-cell, read-out: cellular EC50 values, reduction of IL-4 levels

| Intrinsic clearance, % Liver Blood Flow (human liver hepatocytes) [% Liver Blood Flow] | Kd (BRD4 BD1) [nM] | Kd (BRD4 BD2) [nM] | EC50 [1, 2] [nM] | EC50 [1, 3] [nM] | Compound | EC50 ([1]; 48 hrs, ELISA, read-out: EC50 reduction of IL-4 levels) [nM] |
| --- | --- | --- | --- | --- | --- | --- |
| – | 10 to 100 | – | 10 to 100 | < 100 | Cn1cc(-c2scnc2Oc2ccc(O)cc2)c2cc[nH]c2c1=O [Example 20, 4-(4-(4-hydroxyphenoxy)thiazol-5-yl)-6-methyl-1,6-dihydro-7H-pyrrolo[2,3-c]pyridin-7-one] | – |
| 45 | 10 to 100 | – | 100 to 1000 | – | Cn1cc(Oc2cccc(O)c2)c(-c2cn(C)c(=O)c3[nH]ccc23)cc1=O [Example 24, 4-(5-(3-hydroxyphenoxy)-1-methyl-2-oxo-1,2-dihydropyridin-4-yl)-6-methyl-1,6-dihydro-7H-pyrrolo[2,3-c]pyridin-7-one] | – |
| – | > 1000 | 100 to 1000 | > 1000 | – | Cc1cc(F)cc(C)c1Oc1c(-c2ccc(=O)n(C)c2)ccn(C)c1=O [Example 39, 3′-(4-fluoro-2,6-dimethylphenoxy)-1,1′-dimethyl-[3,4′-bipyridine]-2′,6(1H,1′H)-dione] | – |
| <34 | > 1000 | ≤ 10 | 100 to 1000 | – | Cc1cc(F)cc(C)c1Oc1c(-c2cn(C)c(=O)c3[nH]c(C(=O)NC(C)(C)C)cc23)ccn(C)c1=O [Example 42, N-(tert-butyl)-4-(3-(4-fluoro-2,6-dimethylphenoxy)-1-methyl-2-oxo-1,2-dihydropyridin-4-yl)-6-methyl-7-oxo-6,7-dihydro-1H-pyrrolo[2,3-c]pyridine-2-carboxamide] | – |
| 38 | > 1000 | 10 to 100 | 100 to 1000 | – | Cc1cc(F)cc(C)c1Oc1c(-c2cn(C)c(=O)c3[nH]c(C(=O)NC(C)(C)C(F)(F)F)cc23)ccn(C)c1=O [Example 43] | – |
| 34 | > 1000 | 10 to 100 | 100 to 1000 | – | Cc1cc(F)cc(C)c1Oc1c(-c2cn(C)c(=O)c3[nH]c(C(=O)NC4(C)CC4(F)F)cc23)ccn(C)c1=O (stereo not drawn) [Example 44, N-(2,2-difluoro-1-methylcyclopropyl)-4-(3-(4-fluoro-2,6-dimethylphenoxy)-1-methyl-2-oxo-1,2-dihydropyridin-4-yl)-6-methyl-7-oxo-6,7-dihydro-1H-pyrrolo[2,3-c]pyridine-2-carboxamide] | – |
| 89 | 100 to 1000 | 10 to 100 | 10 to 100 | < 100 | CCCOc1ncsc1-c1cn(C)c(=O)c2[nH]ccc12 [Example 46, 6-methyl-4-(4-propoxythiazol-5-yl)-1,6-dihydro-7H-pyrrolo[2,3-c]pyridin-7-one] | – |

The next lines start with the molecule.

| Compound | Intrinsic clearance, % Liver Blood Flow (human liver hepatocytes) [% Liver Blood Flow] | Kd (BRD4 BD1) [nM] | Kd (BRD4 BD2) [nM] | EC50 [1, 2] [nM] | EC50 [1, 3] [nM] | EC50 ([1]; 48 hrs, ELISA, read-out: EC50 reduction of IL-4 levels) [nM] |
| --- | --- | --- | --- | --- | --- | --- |
| Cn1cc(-c2scnc2Oc2ccccc2)c2cc[nH]c2c1=O [Example 4, 6-methyl-4-(4-phenoxythiazol-5-yl)-1,6-dihydro-7H-pyrrolo[2,3-c]pyridin-7-one] | 80 | 10 to 100 | ≤ 10 | 10 to 100 | < 100 | – |
| Cn1ccc(-c2cn(C)c(=O)c3[nH]ccc23)c(Oc2ccccc2)c1=O [Example 5, 6-methyl-4-(1-methyl-2-oxo-3-phenoxy-1,2-dihydropyridin-4-yl)-1,6-dihydro-7H-pyrrolo[2,3-c]pyridin-7-one] | <34 | 10 to 100 | ≤ 10 | ≤ 10 | < 100 | – |
| Cn1cc(Oc2ccccc2)c(-c2cn(C)c(=O)c3[nH]ccc23)cc1=O [Example 7, 6-methyl-4-(1-methyl-2-oxo-5-phenoxy-1,2-dihydropyridin-4-yl)-1,6-dihydro-7H-pyrrolo[2,3-c]pyridin-7-one] | <34 | 10 to 100 | ≤ 10 | 10 to 100 | < 100 | – |
| Cn1cc(-c2cc(O)ccc2Oc2ccccc2)ccc1=O [Example 8, 5-(5-hydroxy-2-phenoxyphenyl)-1-methyl pyridin-2(1H)-one] | 95 | 10 to 100 | – | 100 to 1000 | – | – |
| Cn1cc(-c2cc(O)ccc2OC2CCC2)c2cc[nH]c2c1=O [Example 10, 4-(2-cyclobutoxy-5-hydroxyphenyl)-6-methyl-1,6-dihydro-7H-pyrrolo[2,3-c]pyridin-7-one] | 93 | ≤ 10 | – | 10 to 100 | < 100 | – |
| Cn1cc(-c2scnc2Oc2ccccc2)ccc1=O [Example 18, 1-methyl-5-(4-phenoxythiazol-5-yl)pyridin-2(1H)-one] | 69 | 100 to 1000 | – | > 1000 | – | – |
| Cc1cc(F)cc(C)c1Oc1c(-c2cn(C)c(=O)c3[nH]ccc23)ccn(C)c1=O [Example 40, 4-(3-(4-fluoro-2,6-dimethylphenoxy)-1-methyl-2-oxo-1,2-dihydropyridin-4-yl)-6-methyl-1,6-dihydro-7H-pyrrolo[2,3-c]pyridin-7-one] | <34 | 100 to 1000 | 10 to 100 | 100 to 1000 | – | – |
| Cn1cc(-c2scnc2OC2CCC2)c2cc[nH]c2c1=O [Example 45, 4-(4-cyclobutoxythiazol-5-yl)-6-methyl-1,6-dihydro-7H-pyrrolo[2,3-c]pyridin-7-one] | 86 | 100 to 1000 | 10 to 100 | – | – | – |
| Cc1cc(F)cc(C)c1Oc1c(-c2cn(C)c(=O)c3[nH]ccc23)ccn(C)c1=O [Example 47, 4-(3-(4-fluoro-2,6-dimethylphenoxy)-1-methyl-2-oxo-1,2-dihydropyridin-4-yl)-6-methyl-1,6-dihydro-7H-pyrrolo[2,3-c]pyridin-7-one] | – | – | ≤ 10 | – | – | 100 to 1000 |
